Reference: US8624040B2, “Substituted hydroxamic acids and uses thereof” (Millennium Pharmaceuticals, Inc., priority 2009, dated 2014)

Target: T1, purified human HDAC6 (Homo sapiens, UniProt Q9UBN7)
T1 construct: purchased BPS Bioscience 5006
T1 sequence (Q9UBN7 1-1215): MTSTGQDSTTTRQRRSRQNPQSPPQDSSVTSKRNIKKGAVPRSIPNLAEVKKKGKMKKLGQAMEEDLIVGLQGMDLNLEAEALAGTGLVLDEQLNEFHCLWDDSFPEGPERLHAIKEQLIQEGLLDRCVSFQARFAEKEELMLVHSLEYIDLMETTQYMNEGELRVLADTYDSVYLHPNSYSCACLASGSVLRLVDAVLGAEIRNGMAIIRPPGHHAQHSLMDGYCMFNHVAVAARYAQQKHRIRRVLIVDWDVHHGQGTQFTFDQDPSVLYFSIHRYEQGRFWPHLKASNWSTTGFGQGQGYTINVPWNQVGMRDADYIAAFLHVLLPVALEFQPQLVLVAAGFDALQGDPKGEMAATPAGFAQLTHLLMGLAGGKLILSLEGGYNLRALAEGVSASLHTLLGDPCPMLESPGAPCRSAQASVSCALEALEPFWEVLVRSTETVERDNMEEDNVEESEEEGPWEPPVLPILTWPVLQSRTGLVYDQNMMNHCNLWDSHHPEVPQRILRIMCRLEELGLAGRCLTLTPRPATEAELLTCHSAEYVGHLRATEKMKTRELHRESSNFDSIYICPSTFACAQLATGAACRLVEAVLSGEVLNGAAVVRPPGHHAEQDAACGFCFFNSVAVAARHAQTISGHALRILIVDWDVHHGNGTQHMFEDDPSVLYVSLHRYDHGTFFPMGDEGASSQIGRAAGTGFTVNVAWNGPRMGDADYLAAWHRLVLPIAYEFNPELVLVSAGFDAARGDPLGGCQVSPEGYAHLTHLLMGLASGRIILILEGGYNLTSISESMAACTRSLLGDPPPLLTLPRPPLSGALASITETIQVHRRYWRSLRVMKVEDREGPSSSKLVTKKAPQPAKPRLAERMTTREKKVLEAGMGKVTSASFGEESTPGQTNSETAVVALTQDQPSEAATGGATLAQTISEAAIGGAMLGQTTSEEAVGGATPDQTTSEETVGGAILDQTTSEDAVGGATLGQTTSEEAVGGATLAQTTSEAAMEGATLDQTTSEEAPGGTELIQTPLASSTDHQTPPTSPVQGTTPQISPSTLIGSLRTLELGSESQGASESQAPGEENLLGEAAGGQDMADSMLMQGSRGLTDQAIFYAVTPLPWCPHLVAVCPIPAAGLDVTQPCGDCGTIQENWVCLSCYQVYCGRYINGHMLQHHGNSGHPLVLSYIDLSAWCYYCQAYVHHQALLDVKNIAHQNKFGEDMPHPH
Assay: HDAC6 Enzyme Assay
Type: biochemical
Settings: enzyme inhibition, substrate Ac-Arg-Gly-Lys(Ac)-AMC, 1 hour at 30° C.
Method: To measure the inhibition of HDAC6 activity, purified human HDAC6 (BPS Bioscience; Cat. No. 5006) is incubated with substrate Ac-Arg-Gly-Lys(Ac)-AMC peptide (Bachem Biosciences; Cat. No. I-1925) for 1 hour at 30° C. in the presence of test compounds or vehicle DMSO control. The reaction is stopped with the HDAC inhibitor trichostatin A (Sigma; Cat. No. T8552) and the amount of Arg-Gly-Lys-AMC generated is quantitated by digestion with trypsin (Sigma; Cat. No. T1426) and subsequent measurement of the amount of AMC released using a fluorescent plate reader (Pherastar; BMG Technologies) set at Ex 340 nm and Em 460 nm. Concentration response curves are generated by calculating the fluorescence increase in test compound-treated samples relative to DMSO-treated controls, and enzyme inhibition (IC50) values are determined from those curves.

Q: Which IC50 does the source give for CC(C)(C)C(=O)N1CCc2cc(C(=O)NO)sc2C1 [Compound 1, 6-(2,2-dimethylpropanoyl)-N-hydroxy-4,5,6,7-tetrahydrothieno[2,3-c]pyridine-2-carboxamide] here?
A: The IC50 was < 50 nM.

Q: O=C(NO)c1cc2c(s1)CN(C(=O)C1CCCCC1)CC2 [Compound 2, 6-(cyclohexylcarbonyl)-N-hydroxy-4,5,6,7-tetrahydrothieno[2,3-c]pyridine-2-carboxamide] was tested. Which IC50 did it give?
A: The IC50 was < 50 nM.

Q: CC1(C(=O)N2CCc3cc(C(=O)NO)sc3C2)CCCCC1 [Compound 3, N-hydroxy-6-[(1-methylcyclohexyl)carbonyl]-4,5,6,7-tetrahydrothieno[2,3-c]pyridine-2-carboxamide] was tested. Which IC50 did it give?
A: The IC50 was < 50 nM.

Q: CC(C)(C(=O)N1CCc2cc(C(=O)NO)sc2C1)c1ccc(Cl)cc1 [Compound 4, 6-[2-(4-chlorophenyl)-2-methylpropanoyl]-N-hydroxy-4,5,6,7-tetrahydrothieno[2,3-c]pyridine-2-carboxamide] was tested. Which IC50 did it give?
A: Its IC50 is < 50 nM.

Q: Which IC50 does the source give for O=C(NO)c1cc2c(s1)CN(C(=O)c1ccsc1)CC2 [Compound 5, N-hydroxy-6-(3-thienylcarbonyl)-4,5,6,7-tetrahydrothieno[2,3-c]pyridine-2-carboxamide] here?
A: The IC50 was < 50 nM.

Q: With CCC(Oc1ccccc1)C(=O)N1CCc2cc(C(=O)NO)sc2C1 (stereo not shown) [Compound 6, N-hydroxy-6-(2-phenoxybutanoyl)-4,5,6,7-tetrahydrothieno[2,3-c]pyridine-2-carboxamide] as the compound, how does the IC50 read?
A: The IC50 was < 50 nM.

Q: How did the IC50 turn out when COc1c(C(=O)N2CCc3cc(C(=O)NO)sc3C2)csc1Cl [Compound 7, 6-[(5-chloro-4-methoxy-3-thienyl)carbonyl]-N-hydroxy-4,5,6,7-tetrahydrothieno[2,3-c]pyridine-2-carboxamide] was run?
A: Its IC50 is < 50 nM.

Q: With O=C(NO)c1cc2c(s1)CN(C(=O)c1[nH]nc3c1CCCC3)CC2 [Compound 8, N-hydroxy-6-(4,5,6,7-tetrahydro-2H-indazol-3-ylcarbonyl)-4,5,6,7-tetrahydrothieno[2,3-c]pyridine-2-carboxamide] as the compound, how does the IC50 read?
A: The IC50 was < 50 nM.

Q: Which IC50 does the source give for CCC(C(=O)N1CCc2cc(C(=O)NO)sc2C1)(c1ccccc1)c1ccccc1 [Compound 9, 6-(2,2-diphenylbutanoyl)-N-hydroxy-4,5,6,7-tetrahydrothieno[2,3-c]pyridine-2-carboxamide] here?
A: Its IC50 is 50 to 100 nM.

Q: With O=C(NO)c1cc2c(s1)CN(C(=O)C(C1CCCCC1)C1CCCCC1)CC2 [Compound 10, 6-(dicyclohexylacetyl)-N-hydroxy-4,5,6,7-tetrahydrothieno[2,3-c]pyridine-2-carboxamide] as the compound, how does the IC50 read?
A: Its IC50 is 50 to 100 nM.

Q: Cc1nc(C(F)(F)F)c(C(=O)N2CCc3cc(C(=O)NO)sc3C2)s1 [Compound 11, N-hydroxy-6-{[2-methyl-4-(trifluoromethyl)-1,3-thiazol-5-yl]carbonyl}-4,5,6,7-tetrahydrothieno[2,3-c]pyridine-2-carboxamide] was tested. Which IC50 did it give?
A: Its IC50 is < 50 nM.

Q: With Cc1ccc(OCC(=O)N2CCc3cc(C(=O)NO)sc3C2)c(C)c1 [Compound 12, 6-[(2,4-dimethylphenoxy)acetyl]-N-hydroxy-4,5,6,7-tetrahydrothieno[2,3-c]pyridine-2-carboxamide] as the compound, how does the IC50 read?
A: Its IC50 is > 1000 nM.

Q: How did the IC50 turn out when O=C(NO)c1cc2c(s1)CN(C(=O)C1(c3ccc(F)cc3Cl)CCCC1)CC2 [Compound 13, 6-{[1-(2-chloro-4-fluorophenyl)cyclopentyl]carbonyl}-N-hydroxy-4,5,6,7-tetrahydrothieno[2,3-c]pyridine-2-carboxamide] was run?
A: Its IC50 is < 50 nM.

Q: Which IC50 does the source give for O=C(NO)c1cc2c(s1)CN(C(=O)C13CC4CC(CC(C4)C1)C3)CC2 [Compound 14, 6-[1-adamantylcarbonyl]-N-hydroxy-4,5,6,7-tetrahydrothieno[2,3-c]pyridine-2-carboxamide] here?
A: Its IC50 is < 50 nM.

Q: Which IC50 does the source give for O=C(NO)c1cc2c(s1)CN(C(=O)C1CCCCN1S(=O)(=O)c1ccccc1)CC2 (stereo not shown) [Compound 15, N-hydroxy-6-{[1-(phenylsulfonyl)piperidin-2-yl]carbonyl}-4,5,6,7-tetrahydrothieno[2,3-c]pyridine-2-carboxamide] here?
A: The IC50 was 50 to 100 nM.

Q: Which IC50 does the source give for Cc1oc(S(=O)(=O)N2CCCCC2)cc1C(=O)N1CCc2cc(C(=O)NO)sc2C1 [Compound 16, N-hydroxy-6-[2-methyl-5-(piperidin-1-ylsulfonyl)-3-furoyl]-4,5,6,7-tetrahydrothieno[2,3-c]pyridine-2-carboxamide] here?
A: The IC50 was < 50 nM.

Q: For O=C(NO)c1cc2c(s1)CN(C(=O)CC1c3ccccc3-c3ccccc31)CC2 [Compound 17, 6-(9H-fluoren-9-ylacetyl)-N-hydroxy-4,5,6,7-tetrahydrothieno[2,3-c]pyridine-2-carboxamide], which IC50 is on record?
A: The IC50 was > 1000 nM.

Q: With O=C(NO)c1cc2c(s1)CN(S(=O)(=O)CC(c1ccccc1)c1ccccc1)CC2 [Compound 18, 6-[(2,2-diphenylethyl)sulfonyl]-N-hydroxy-4,5,6,7-tetrahydrothieno[2,3-c]pyridine-2-carboxamide] as the compound, how does the IC50 read?
A: The IC50 was < 50 nM.

Q: CCCCS(=O)(=O)N1CCc2cc(C(=O)NO)sc2C1 [Compound 19, 6-(butylsulfonyl)-N-hydroxy-4,5,6,7-tetrahydrothieno[2,3-c]pyridine-2-carboxamide] was tested. Which IC50 did it give?
A: Its IC50 is < 50 nM.

Q: With Cc1noc(C)c1S(=O)(=O)N1CCc2cc(C(=O)NO)sc2C1 [Compound 20, 6-[(3,5-dimethylisoxazol-4-yl)sulfonyl]-N-hydroxy-4,5,6,7-tetrahydrothieno[2,3-c]pyridine-2-carboxamide] as the compound, how does the IC50 read?
A: Its IC50 is < 50 nM.

Q: O=C(NO)c1cc2c(s1)CN(S(=O)(=O)c1ccc(C(F)(F)F)cc1)CC2 [Compound 21, N-hydroxy-6-{[4-(trifluoromethyl)phenyl]sulfonyl}-4,5,6,7-tetrahydrothieno[2,3-c]pyridine-2-carboxamide] was tested. Which IC50 did it give?
A: The IC50 was < 50 nM.

Q: O=C(NO)c1cc2c(s1)CN(Cc1ccc3c(c1)OCCCO3)CC2 [Compound 22, 6-(3,4-dihydro-2H-1,5-benzodioxepin-7-ylmethyl)-N-hydroxy-4,5,6,7-tetrahydrothieno[2,3-c]pyridine-2-carboxamide] was tested. Which IC50 did it give?
A: The IC50 was < 50 nM.

Q: Which IC50 does the source give for O=C(NO)c1cc2c(s1)CN(Cc1ccc(-n3cccn3)cc1)CC2 [Compound 23, N-hydroxy-6-[4-(1H-pyrazol-1-yl)benzyl]-4,5,6,7-tetrahydrothieno[2,3-c]pyridine-2-carboxamide] here?
A: Its IC50 is < 50 nM.

Q: Which IC50 does the source give for Cc1nn(-c2ccccc2)nc1CN1CCc2cc(C(=O)NO)sc2C1 [Compound 24, N-hydroxy-6-[(5-methyl-2-phenyl-2H-1,2,3-triazol-4-yl)methyl]-4,5,6,7-tetrahydrothieno[2,3-c]pyridine-2-carboxamide] here?
A: The IC50 was < 50 nM.

Q: O=C(NO)c1cc2c(s1)CN(Cc1cccc3nsnc13)CC2 [Compound 25, 6-(2,1,3-benzothiadiazol-4-ylmethyl)-N-hydroxy-4,5,6,7-tetrahydrothieno[2,3-c]pyridine-2-carboxamide] was tested. Which IC50 did it give?
A: Its IC50 is < 50 nM.

Q: With CC(C)(C)C(=O)N1CCc2sc(C(=O)NO)cc2C1 [Compound 26, 5-(2,2-dimethylpropanoyl)-N-hydroxy-4,5,6,7-tetrahydrothieno[3,2-c]pyridine-2-carboxamide] as the compound, how does the IC50 read?
A: Its IC50 is < 50 nM.

Q: Cn1cccc1C(=O)N1CCc2sc(C(=O)NO)cc2C1 [Compound 27, N-hydroxy-5-[(1-methyl-1H-pyrrol-2-yl)carbonyl]-4,5,6,7-tetrahydrothieno[3,2-c]pyridine-2-carboxamide] was tested. Which IC50 did it give?
A: The IC50 was < 50 nM.

Q: How did the IC50 turn out when CC1(C(=O)N2CCc3sc(C(=O)NO)cc3C2)CCCCC1 [Compound 28, N-hydroxy-5-(1-methylcyclohexanecarbonyl)-4,5,6,7-tetrahydrothieno[3,2-c]pyridine-2-carboxamide] was run?
A: Its IC50 is < 50 nM.
